Reference: patent US10858413B2, “Immunoglobulins and uses thereof” (Janssen Pharmaceutica NV, priority 2016, dated 2020)
Marks after values point to notes of the source that are not given here.

Experiments:
DIO mice [1] = experiment: OGTT (blood glucose, insulin) in DIO mice after 8 days of treatment; format: in vivo, mouse; details: 0.3 nmol/kg s.c. every day
Experimental: (§1) Compound 1 was evaluated for its ability to reduce foot intake and body weight and improve glucose homeostasis on repeat dosing in male DIO C57B1/6 mice over a period of 8 days. Male DIO C57BL/6N mice (20 weeks of age, 14 weeks on high fat diet) were obtained from Taconic Laboratory. […] Animals were acclimated to the facility for at least one week prior to the start of the experiment.
(§2) The day prior to dosing, mice were grouped based on individual body weights. At 3:00-4:00 pm for each of the next 8 days, animals and food intake were weighed. […] After 8 days, mice are fasted for 5 hours and then given a 2 g/kg bolus of glucose orally at t=0. At t=0, 30, 60, 90, and 120 minutes post glucose challenge blood glucose is measured and at t=0, 30, and 90 minutes blood in drawn to measure plasma insulin. […] All data are presented as the mean±SEM (FIGS. 8 and 9, and Tables 5-8).

DIO mice [2] = experiment: Fed blood glucose in DIO mice after 8 days of treatment; format: in vivo, mouse; details: 0.3 nmol/kg s.c. every day
Experimental: as §1, §2

DIO mice [3] = experiment: Repeat dosing in DIO mice: daily food intake; format: in vivo, mouse; details: 0.3 nmol/kg s.c. daily
Experimental: (§3) To control for the dosing frequency, all animals were dosed daily. Dosing frequency was determined on the basis of DIO mouse PK data for compound 2 and dulaglutide. Animals in the dulaglutide group received this drug daily. The vehicle-treated animals received vehicle daily. […] The day prior to initiating of dosing, animals were weighed and grouped by body weight. […].
(§4) Beginning 24-hr after the first dosing, three groups of mice were pair-fed (PF) to the 1.0, 2.0, or 4.0 nmol/kg compound 2-treated animals. The amount of food in the hopper of pair-fed mice was adjusted to match the average food consumed in the previous 24 hours by mice in the compound treatment group to which they were being matched. All PF groups were dosed daily with vehicle. On the ninth day (or Day 10 for the pair-fed groups), animals were fasted for 6 hours and body weight and fasting glucose were measured. Blood was collected for measurements of insulin, FGF21 and plasma lipids. The food intake, body weight, body composition, fasting glucose, fasting insulin, fasting FGF21, and fasting plasma lipid data are shown in tables 20-26.

[4] = Repeat dosing in DIO mice: body weight change and body composition; format: in vivo, mouse; details: 0.3 nmol/kg s.c. daily
Experimental: as §3, §4

DIO mice [5] = experiment: Repeat dosing in DIO mice: fasting glucose, insulin, FGF21, plasma lipids; format: in vivo, mouse; details: after repeated dosing, 0.3 nmol/kg s.c. daily
Experimental: as §3, §4

DIO mice [6] = experiment: Single-dose efficacy in DIO mice: food intake; details: single s.c. dose 0.3 nmol/kg
DIO mice [7] = experiment: Single-dose efficacy in DIO mice: plasma FGF21; details: 26 hours after treatment, single s.c. dose 0.3 nmol/kg
[8] = Single-dose efficacy in DIO mice: body weight change; details: single s.c. dose 0.3 nmol/kg, 18 hours after treatment, relative to day 0
DIO mice [9] = experiment: Single-dose efficacy in DIO mice: fasting glucose, IPGTT glucose and insulin; details: single s.c. dose 0.3 nmol/kg
PTHR1 = target: T1, PTHR1 (Homo sapiens, UniProt Q03431); experiment: class B GPCR cAMP assay, PTHR1; format: cell-based
T1 construct: host or cells: cells of an unnamed vendor
T1 sequence (Q03431 27-593): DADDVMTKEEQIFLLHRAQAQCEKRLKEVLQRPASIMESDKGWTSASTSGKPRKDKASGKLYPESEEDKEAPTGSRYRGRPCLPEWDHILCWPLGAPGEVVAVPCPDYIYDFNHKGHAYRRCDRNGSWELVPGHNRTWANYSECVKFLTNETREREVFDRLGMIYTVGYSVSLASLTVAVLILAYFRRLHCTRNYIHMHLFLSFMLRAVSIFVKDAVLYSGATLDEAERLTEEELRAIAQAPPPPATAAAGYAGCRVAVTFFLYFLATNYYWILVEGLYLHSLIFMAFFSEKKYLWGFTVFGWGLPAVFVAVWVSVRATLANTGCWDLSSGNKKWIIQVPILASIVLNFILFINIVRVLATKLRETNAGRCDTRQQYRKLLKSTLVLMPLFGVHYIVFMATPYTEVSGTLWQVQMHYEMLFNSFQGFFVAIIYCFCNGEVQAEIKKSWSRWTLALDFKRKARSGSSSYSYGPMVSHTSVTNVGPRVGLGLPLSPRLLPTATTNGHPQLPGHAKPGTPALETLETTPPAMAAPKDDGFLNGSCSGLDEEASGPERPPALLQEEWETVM
Experimental: The assays were performed according to the vendor's standard operating procedures with a positive control included for each receptor tested.

Dulaglutide: GLP1R agonist (long-acting GLP-1 receptor agonist) [reference compound]
blood glucose Delta AUC (OGTT) (DIO mice [1]): 6668 ± 1846 mg/dl/120 min
blood glucose Total AUC (OGTT) (DIO mice [1]): 15758 ± 1054 mg/dl/120 min
blood glucose during an OGTT (DIO mice [1]; 0 min after glucose challenge): 76 ± 9 mg/dL
insulin during an OGTT (DIO mice [1]; 0 min after glucose challenge): 0.6 ± 0.1 ng/mL
blood glucose during an OGTT (DIO mice [1]; 30 min after glucose challenge): 151 ± 14 mg/dL
insulin during an OGTT (DIO mice [1]; 30 min after glucose challenge): 1.7 ± 0.2 ng/mL
blood glucose during an OGTT (DIO mice [1]; 60 min after glucose challenge): 174 ± 17 mg/dL
blood glucose during an OGTT (DIO mice [1]; 90 min after glucose challenge): 104 ± 10 mg/dL
insulin during an OGTT (DIO mice [1]; 90 min after glucose challenge): 0.7 ± 0.2 ng/mL
blood glucose during an OGTT (DIO mice [1]; 120 min after glucose challenge): 119 ± 9 mg/dL
fed Blood Glucose (DIO mice [2]): 114 ± 13 mg/dL
daily food intake (DIO mice [3]; day 0): 3.1 ± 0.2 grams
daily food intake (DIO mice [3]; day 1): 1.5 ± 0.2 grams
daily food intake (DIO mice [3]; day 2): 1.3 ± 0.2 grams
daily food intake (DIO mice [3]; day 3): 1.7 ± 0.3 grams
daily food intake (DIO mice [3]; day 4): 1.9 ± 0.2 grams
daily food intake (DIO mice [3]; day 5): 2.1 ± 0.2 grams
daily food intake (DIO mice [3]; day 6): 2.2 ± 0.2 grams
daily food intake (DIO mice [3]; day 7): 2.3 ± 0.2 grams
daily food intake (DIO mice [3]; day 8): 2.9 ± 0.4 grams
daily food intake (DIO mice [3]; day 9): 2.5 ± 0.2 grams
percent body weight change ([4]; day 0, relative to day 0): 0.0%
percent body weight change ([4]; day 1, relative to day 0): −3.7 ± 0.3%
percent body weight change ([4]; day 2, relative to day 0): −6.2 ± 0.6%
percent body weight change ([4]; day 3, relative to day 0): −7.8 ± 0.8%
percent body weight change ([4]; day 4, relative to day 0): −9.2 ± 0.8%
percent body weight change ([4]; day 5, relative to day 0): −10.1 ± 0.8%
percent body weight change ([4]; day 6, relative to day 0): −10.2 ± 0.8%
percent body weight change ([4]; day 7, relative to day 0): −10.7 ± 1.0%
percent body weight change ([4]; day 8, relative to day 0): −11.1 ± 0.9%
percent body weight change ([4]; day 9, relative to day 0): −13.1 ± 1.1%
body composition: Fat Mass ([4]; after repeated dosing): 7.6 ± 1.1 g
body composition: Fat, % of Body Weight ([4]; after repeated dosing): 22.8 ± 1.2%
body composition: Lean Mass ([4]; after repeated dosing): 22.1 ± 0.3 g
body composition: Lean, % of Body Weight ([4]; after repeated dosing): 61.0 ± 1.7%
6 hour fasting Blood Glucose (DIO mice [5]): 123 ± 5 mg/dL
6 hour fasting Plasma Insulin (DIO mice [5]): 1.4 ± 0.2 ng/mL
6 hour fasting plasma FGF21 (DIO mice [5]): 0.5 ± 0.1 ng/mL
plasma Free Fatty Acids (DIO mice [5]): 73.2 ± 12.0 µmol/L
plasma Free Glycerol (DIO mice [5]): 0.5 ± 0.1 mmol/L
plasma Total cholesterol (DIO mice [5]): 146.1 ± 3.3 mg/dL
plasma Tri-glycerides (DIO mice [5]): 24.1 ± 2.3 mg/dL
food intake (DIO mice [6]; 18 hours post-dose): 1.5 ± 0.1*^ grams
food intake (DIO mice [6]; 24 hours pre-dose): 3.1 ± 0.1 grams
Plasma FGF21 (DIO mice [7]): 0.8 ± 0.2 ng/mL
Weight Change (%) [8]: −4.1 ± 0.3 %
6 hour fasting Blood Glucose (DIO mice [9]; 24 hours after treatment): 140 ± 7 mg/dL
Blood Glucose Net AUC during an IPGTT (DIO mice [9]; 24 hours after treatment): 8471 ± 1204
blood glucose during an IPGTT (DIO mice [9]; 24 hours after treatment, 0 min): 140 ± 7 mg/dL
blood glucose during an IPGTT (DIO mice [9]; 24 hours after treatment, 10 min): 264 ± 18 mg/dL
blood glucose during an IPGTT (DIO mice [9]; 24 hours after treatment, 30 min): 267 ± 22 mg/dL
blood glucose during an IPGTT (DIO mice [9]; 24 hours after treatment, 60 min): 228 ± 12 mg/dL
blood glucose during an IPGTT (DIO mice [9]; 24 hours after treatment, 90 min): 193 ± 9 mg/dL
Plasma Insulin (DIO mice [9]; 10 minutes post-glucose (IPGTT)): 1.7 ± 0.2 ng/mL
Plasma Insulin (DIO mice [9]; Pre-glucose (24 hours after treatment)): 1.6 ± 0.2 ng/mL

CC[C@H](C)[C@H](NC(=O)[C@H](CCC(=O)O)NC(=O)[C@H](CO)NC(=O)[C@@H](NC(=O)[C@@H](N)CO)C(C)C)C(=O)N[C@@H](CCC(N)=O)C(=O)N[C@@H](CC(C)C)C(=O)N[C@@H](CCSC)C(=O)N[C@@H](Cc1cnc[nH]1)C(=O)N[C@@H](CC(N)=O)C(=O)N[C@@H](CC(C)C)C(=O)NCC(=O)N[C@@H](CCCCN)C(=O)N[C@@H](Cc1cnc[nH]1)C(=O)N[C@@H](CC(C)C)C(=O)N[C@@H](CC(N)=O)C(=O)N[C@@H](CO)C(=O)N[C@@H](CCSC)C(=O)N[C@@H](CCC(=O)O)C(=O)N[C@@H](CCCNC(=N)N)C(=O)N[C@H](C(=O)N[C@@H](CCC(=O)O)C(=O)N[C@@H](Cc1c[nH]c2ccccc12)C(=O)N[C@@H](CC(C)C)C(=O)N[C@@H](CCCNC(=N)N)C(=O)N[C@@H](CCCCN)C(=O)N[C@@H](CCCCN)C(=O)N[C@@H](CC(C)C)C(=O)N[C@@H](CCC(N)=O)C(=O)N[C@@H](CC(=O)O)C(=O)N[C@H](C(=O)N[C@@H](Cc1cnc[nH]1)C(=O)N[C@@H](CC(N)=O)C(=O)N[C@@H](Cc1ccccc1)C(=O)O)C(C)C)C(C)C [PTH(1-34)]
Curve Bottom (PTHR1): −5.9767
Curve Top (PTHR1): 101
Hill (PTHR1): 1.8672
